Laboratory results taken from ChEMBL document CHEMBL3046731, “Synthesis and antifungal activity of 1-substitutedphenyl-3-(5-halobenzimidazol-2-yl) acylurea” (J Pestic Sci, 2010).
≈ marks a conversion by molar mass, not a printed value.

Key:
Sclerotinia sclerotiorum = experiment: Antifungal activity against Sclerotinia sclerotiorum assessed as inhibition of mycelium growth on potato dextrose agar at 25 +/- 1 degC for 96 hr; format: functional, organism-based
Botrytis cinerea = experiment: Antifungal activity against Botryotinia fuckeliana assessed as inhibition of mycelium growth on potato dextrose agar at 25 +/- 1 degC for 96 hr; format: functional, organism-based

| SMILES | EC50 (Sclerotinia sclerotiorum) | EC50 (Botrytis cinerea) |
| --- | --- | --- |
| O=C(NC(=O)c1nc2cc(F)ccc2[nH]1)Nc1ccc(F)cc1 | 10.9 µg/mL (≈ 34.6 µM) | 10.9 µg/mL (≈ 34.6 µM) |
| O=C(NC(=O)c1nc2cc(F)ccc2[nH]1)Nc1ccc(Br)cc1 | 8.66 µg/mL (≈ 23 µM) | 13.6 µg/mL (≈ 36.1 µM) |
| O=C(NC(=O)c1nc2cc(F)ccc2[nH]1)Nc1ccc([N+](=O)[O-])cc1 | 8.71 µg/mL (≈ 25.4 µM) | 10.4 µg/mL (≈ 30.2 µM) |
| O=C(NC(=O)c1nc2cc(Cl)ccc2[nH]1)Nc1ccc(Cl)c(Cl)c1 | 5.5 µg/mL (≈ 14.3 µM) | 12.6 µg/mL (≈ 33 µM) |
| O=C(NC(=O)c1nc2cc(Cl)ccc2[nH]1)Nc1ccc([N+](=O)[O-])cc1 | 9.14 µg/mL (≈ 25.4 µM) | 30.7 µg/mL (≈ 85.4 µM) |
| O=C(NC(=O)c1nc2cc(Cl)ccc2[nH]1)Nc1ccc(Br)cc1 | 9.28 µg/mL (≈ 23.6 µM) | 3.94 µg/mL (≈ 10 µM) |
| O=C(NC(=O)c1nc2cc(F)ccc2[nH]1)Nc1ccc(Cl)cc1 | 14.6 µg/mL (≈ 43.9 µM) | 4.65 µg/mL (≈ 14 µM) |
| O=C(NC(=O)c1nc2cc(F)ccc2[nH]1)Nc1ccc(Cl)c(Cl)c1 | 9.03 µg/mL (≈ 24.6 µM) | 11.5 µg/mL (≈ 31.5 µM) |
| O=C(NC(=O)c1nc2cc(Cl)ccc2[nH]1)Nc1ccccc1 | 11.7 µg/mL (≈ 37 µM) | 22.4 µg/mL (≈ 71.2 µM) |
| O=C(NC(=O)c1nc2cc(Cl)ccc2[nH]1)Nc1ccc(Cl)cc1 | 6.05 µg/mL (≈ 17.3 µM) | 18.9 µg/mL (≈ 54 µM) |
| COC(=O)NC(=S)Nc1ccccc1NC(=S)NC(=O)OC [THIOPHANATE METHYL] | 10.5 µg/mL (≈ 30.5 µM) | 1.03 µg/mL (≈ 3.01 µM) |
| O=C(NC(=O)c1nc2cc(Cl)ccc2[nH]1)Nc1ccc(F)cc1 | 6.23 µg/mL (≈ 18.7 µM) | 8.76 µg/mL (≈ 26.3 µM) |
| O=C(NC(=O)c1nc2cc(F)ccc2[nH]1)Nc1ccccc1 | 6.55 µg/mL (≈ 22 µM) | 19.9 µg/mL (≈ 66.9 µM) |
